Source: patent publication US20060068389A1, “Methods and compositions for inhibiting hiv replication” (priority 2002, published 2006)

What was measured:
[1] = test system: Vpr; conditions: typical of multiple assays, FIG. 1
Text: Accordingly to test if additional anti-glucocorticoids might mediate similar effects, screening assays were developed based on the above Vpr activities which include inhibition of antiviral activity, rescue of the inhibition of cell proliferation and viral transactivation studies. Mifepristone analogues were chosen by SAR analysis.

[2] = test system: Rip-1; test: Vpr mediated stimulation of Rip-1 nuclear translocation; assay type: cell-based, human
Text: (§1) The Vpr gene of HIV-1 encodes a 15 KD virion associated protein which functions as a regulator of cellular processes linked to the HIV life cycle. We observed the interaction of a 41-kD cytosolic viral protein R interacting protein-1 (rip-1), associated with Vpr in vitro, and co-localizes in cells ex vivo. […] This protein co-elutes with Vpr in an immunoaffmity system and can be cross-linked with Vpr to form a 58 Kd complex. […] The Vpr mediated stimulation of Rip-1 nuclear translocation, and the viral complementation accomplished with exogenous Vpr protein was mimicked by GR II stimulating steroids. These effects were inhibited by mifepristone, a well-characterized GR II pathway inhibitor. In addition, the levels of LTR-CAT induction attained by Vpr protein were similarly obtained by GR activating steroids. Vpr protein induced CAT activity in cells transfected with a plasmid that contains CAT linked to HIV-1 LTR, pLTR-CAT, and co-localized with Dexamethasone as to the site of its induction of CAT activity from a panel of HIV-1 LTR CAT deletion mutants. In addition, Vpr stimulated the formation of the DNA binding complex which associates with GRE sequences during the glucocorticoid mediated transactivation process.

[3] = test system: Vpr; test: Viral complementation accomplished with exogenous Vpr protein; assay type: cell-based, HIV-1
Text: as §1

Row | Compound | activity in the above assays (Vpr-based screening assays) [1] | inhibition of Vpr mediated stimulation of Rip-1 nuclear translocation [2] | inhibition of viral complementation accomplished with exogenous Vpr protein [3]
1 | C#C[C@]1(O)CCC2C3CCC4=C(CCC(=O)C4)C3CCC21C (stereo partly drawn) [Compound D2, 17-α-ethynyl-17-β-hydroxyestr-5(10)-En-3-one] | some activity | – | –
2 | CC(=O)C1CCC2C3C=CC4=CC(=O)CCC4(C)C3CCC12C (stereo not shown) [Compound D1, Pregna4,6,-diene-3,20-dione] | some activity | – | –
3 | CC#C[C@]1(O)CC[C@H]2[C@@H]3CCC4=CC(=O)CCC4=C3[C@@H](c3ccc(N(C)C)cc3)C[C@@]21C [mifepristone] | – | inhibited | inhibited
